In patent US20260103474A1, “NOVEL COMPOUNDS FOR THE DIAGNOSIS OF TDP-43 PROTEINOPATHIES” (AC IMMUNE SA, priority 2022, published 2026):

Legend:
[1] = target: T1, Human brain derived TDP-43 aggregates (Homo sapiens, UniProt Q13148); assay: Micro-radiobinding competition assay for binding affinity to TDP-43; details: for Ki: 0.24 nM to 2 μM vs tritiated reference ligand at 40 nM; for Human brain derived TDP-43 aggregates Mean % competition at 250 nM: non-radiolabeled compound at 250 nM vs tritiated reference ligand at 40 nM; for Human brain derived TDP-43 aggregates Mean % competition at 250 nM / Human brain derived TDP-43 aggregates Mean % competition at 2 μM: FTD sarkosyl-insoluble brain extracts; for Human brain derived TDP-43 aggregates Mean % competition at 2 μM: non-radiolabeled compound at 2 μM vs tritiated reference ligand at 40 nM
T1 construct: Human FTD sarkosyl-insoluble brain extracts were spotted onto microarray slides
Procedure: Human brain extracts were prepared as described in Laferriere et al., 2019, Nature Neurosc. A sample of brain tissue (frontal or temporal cortex) was homogenized at 1:4 (w/v) ratio in the homogenization-solubilization (HS) buffer at 4° C. using tissue homogenizer (Precellys) with CKmix homogenization tubes. The following sequence was used for homogenization: 3 cycles of 30 seconds at 5000 rpm (with 15 seconds pause between each cycle). Homogenized samples were aliquoted and stored at −80° C. in 1.5 mL low protein binding tubes.
Brain homogenates were thawed on ice and resuspended in HS buffer to obtain a final concentration of 2% sarkosyl, 1 unit/μL Benzonase and 1 mM MgCl2. The samples were then incubated at 37° C. under constant shaking at 600 rpm on a thermomixer for 45 minutes (min). The supernatants were collected in a new tube (sarkosyl-soluble fraction, S1). The pellet was resuspended in 1000 μL of myelin floatation buffer and centrifuged at 20,000 g for 60 min at 4° C. The supernatant was carefully removed to remove all the floating lipids. This step was repeated if all the lipids could not be removed in a single step. The pellet was subsequently washed with Phosphate-Buffered Saline (PBS) and centrifuged for 30 min at 20,000 g at 4° C. The final pellet was resuspended in 200 μL PBS and stored at −80° C. (sarkosyl-insoluble fraction). The samples were analyzed by immunoblotting in denaturing conditions.
Human FTD sarkosyl-insoluble brain extracts were spotted onto microarray slides. The slides were incubated with a tritiated reference ligand at 40 nM, and the example compounds (non-radiolabeled) at 2 μM and 250 nM. […] After incubation, slides were washed and scanned by a real-time autoradiography system (BeaQuant, ai4R). Quantification of the signal was performed by using the Beamage image analysis software (ai4R). Non-specific signal was determined with an excess of non-radiolabeled reference compound (2 μM) and specific binding was calculated by subtracting the non-specific signal from the total signal. Competition was calculated as percent, where 0% was defined as the specific binding in the presence of vehicle and 100% as the values obtained in the presence of excess of the non-radiolabeled reference compound. Ki values were calculated in GraphPad Prism8 by applying a nonlinear regression curve fit using a one site, specific binding model. Measurements were performed with at least two technical replicates in the two-concentration competition experiment and with one technical replicate in the experiments including a range of concentrations. For compounds tested in more than one experiment, the mean of the replicates or Ki values in independent experiments is reported.

[2] = test system: AD brain homogenates (containing Abeta and Tau); assay: Radiobinding assay (direct binding, Kd) on AD insoluble fraction of brain homogenates; parameters: species or system human; details: saturation binding of tritiated compound
Procedure: Approximately 4 g of frozen tissue block from frontal cortex brain region was used from an AD donor with confirmed burden of Tau and Abeta aggregates. The tissue was homogenized in three volumes (1:3 w/v) of high salt buffer (50 mM Tris-HCl pH 7.5, 750 mM NaCl, 5 mM EDTA) supplemented with protease inhibitors (Complete; Roche 11697498001) at 4° C. with a glass Dounce homogenizer. The homogenate was transferred into polycarbonate centrifuge bottles (16×76 mm; Beckman 355603) and centrifuged at 100,000×g (38,000 RPM) in an ultracentrifuge (Beckman, XL100K) for 60 minutes at 4° C. using a pre-cooled 70.1 rotor (Beckman, 342184). Pellets were resuspended in high salt buffer supplemented with 1% Triton X-100 and homogenized at 4° C. with a syringe. The homogenates were centrifuged again at 100,000×g (38,000 RPM, 70.1 rotor) for 60 minutes at 4° C. Pellets were resuspended in high salt buffer supplemented with 1% Triton X-100 and 1 M sucrose and homogenized at 4° C. with a syringe. […]
The AD insoluble fraction was incubated with [^3H]Compound 1, [^3H]Compound 17 or [^3H]Abeta reference compound ([^3H]Abeta ref) at different concentrations. […] The filters were analyzed on a Microbeta scintillation counter (PerkinElmer). Specific binding was calculated by subtracting the non-specific signal from the total signal. […]

Tau tangles = assay: High resolution micro-autoradiography on AD brain sections; type: binding, human; details: tritiated compound 20 nM
Procedure: The protocol was adapted from Marquie et al., 2015. AD sections were incubated with [^3H]-Compound 1, [^3H]-Compound 17 or [^3H]-Tau reference compound at 20 nM for one hour at room temperature (RT). Sections were then washed as follows: One time in ice-cold 50 mM Tris-HCl pH 7.4 buffer for one minute, two times in 70% ice-cold ethanol for one minute, one time in ice-cold 50 mM Tris-HCl pH 7.4 buffer for one minute and finally rinsed briefly in ice-cold distilled water. Sections were subsequently dried and then exposed to Ilford Nuclear Emulsion Type K5 (Agar Scientific, AGP9281) in a light-proof slide storage box. After five days, the sections were developed by immersing them successively in the following solutions: 1.) Ilford Phenisol Developer (1:5 dilution in H2O, Agar Scientific, AGP9106), 2.) Ilfostop solution (1:20 dilution in H2O, Agar Scientific, AGP9104), 3.) Ilford Hypam Fixer (1:5 dilution in H2O, Agar Scientific, AGP9183) and finally rinsed with H2O.
Thioflavin S staining was performed on adjacent sections. For image acquisition, sections were mounted using ProLong Gold Antifade reagent (Invitrogen P36930) and imaged on a Panoramic150 Slide Scanner (3DHistech) with a 20× objective capturing separately brightfield and fluorescent images.

T1 sequence (Q13148 261-414 limits assumed): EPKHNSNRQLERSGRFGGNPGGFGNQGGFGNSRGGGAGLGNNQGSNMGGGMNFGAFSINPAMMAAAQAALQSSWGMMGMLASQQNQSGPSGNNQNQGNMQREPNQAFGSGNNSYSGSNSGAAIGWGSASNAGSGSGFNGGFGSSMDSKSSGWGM

Row | SMILES | Ki [1] [nM] | Human brain derived TDP-43 aggregates Mean % competition at 250 nM [1] [%] | Human brain derived TDP-43 aggregates Mean % competition at 2 μM [1] [%] | Direct binding in AD brain homogenates (containing Abeta and Tau) [2] | Micro-autoradiography silver grain accumulation on Tau tangles in AD brain sections (Tau tangles)
1 | O=C1c2sc(-c3ccc(N4CC[C@@H](F)C4)nc3F)nc2CCN1c1cccnc1 [Compound 1, 2-[2-fluoro-6-[(3R)-3-fluoropyrrolidin-1-yl]-3-pyridyl]-5-(3-pyridyl)-6,7-dihydrothiazolo[5,4-c]pyridin-4-one] | 22 | 65 | 78 |  | 
2 | O=C1c2sc(-c3ccc(N4CCC(CO)CC4)nc3F)nc2CCN1c1cccnc1 [Compound 17, 2-(2-fluoro-6-(4-(hydroxymethyl)piperidin-1-yl)pyridin-3-yl)-5-(pyridin-3-yl)-6,7-dihydrothiazolo[5,4-c]pyridin-4(5H)-one] | 41 | 73 | 85 |  | 
3 | [3H]c1cncc(N2CCc3nc(-c4cc([3H])c(N5CC[C@@H](F)C5)nc4F)sc3C2=O)c1 [[^3H]-Compound 1, tritiated 2-[2-fluoro-6-[(3R)-3-fluoropyrrolidin-1-yl]-3-pyridyl]-5-(3-pyridyl)-6,7-dihydrothiazolo[5,4-c]pyridin-4-one] |  |  |  | No significant binding | No accumulation of silver grains on Tau tangles
4 | [3H]C([3H])(O)C1CCN(c2ccc(-c3nc4c(s3)C(=O)N(c3cccnc3)CC4)c(F)n2)CC1 [[^3H]-Compound 17, 2-(2-fluoro-6-(4-(hydroxymethyl-t2)piperidin-1-yl)pyridin-3-yl)-5-(pyridin-3-yl)-6,7-dihydrothiazolo[5,4-c]pyridin-4(5H)-one] |  |  |  | No significant binding | No accumulation of silver grains on Tau tangles
